These results are taken from patent US20250011285A1, “CYP11A1 INHIBITORS” (ORION CORPORATION, priority 2021, published 2025).

This experiment has as its target T1, CYP11A1 (Homo sapiens, UniProt P05108).
T1 construct: human H295R adrenocortical carcinoma cell line was used as source of enzyme; endogenous in cells; host or cells: H295R human adrenocortical carcinoma cells
T1 sequence (P05108 40-521): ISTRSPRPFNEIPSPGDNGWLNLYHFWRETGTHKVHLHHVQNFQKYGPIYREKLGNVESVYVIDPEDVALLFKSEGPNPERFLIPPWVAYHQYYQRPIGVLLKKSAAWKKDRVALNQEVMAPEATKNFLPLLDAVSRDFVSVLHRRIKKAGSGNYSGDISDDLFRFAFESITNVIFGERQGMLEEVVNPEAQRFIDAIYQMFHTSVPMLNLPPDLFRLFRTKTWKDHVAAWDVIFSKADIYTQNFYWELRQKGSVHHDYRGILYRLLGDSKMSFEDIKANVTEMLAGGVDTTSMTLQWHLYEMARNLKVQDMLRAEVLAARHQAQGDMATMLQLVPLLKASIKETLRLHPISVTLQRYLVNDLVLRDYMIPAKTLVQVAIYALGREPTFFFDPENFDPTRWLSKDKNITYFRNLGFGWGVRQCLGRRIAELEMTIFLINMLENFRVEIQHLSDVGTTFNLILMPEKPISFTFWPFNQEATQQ
Put plainly: CYP11A1 inhibition, isocaproic acid release assay (IARA) in H295R cells. It is filed as cell-based. To be noted: human H295R adrenocortical carcinoma cells treated three days, 3 nM [24,25-3H]-labelled cholesterol, 1% DMSO; read-out: IC50 on CYP11A1 inhibition (Group). How it is done:
The ability of the test compounds to inhibit conversion of cholesterol to pregnenolone and isocaproic acid was measured by modification of isocaproic acid release assay (IARA) described by Ruangwises et al. (Biology of Reproduction 1991; 45(1):143-50) except that human H295R adrenocortical carcinoma cell line was used as source of enzyme and extraction was done with dextran-coated charcoal suspension (Isomaa, V. et al., Endocrinology 1982; 111(3):833-843). […] To determine the half maximal inhibitory concentration (IC50) of the test compounds on CYP11A1 inhibition, the cells were treated for three days with increasing concentrations of the test compounds in the presence of 3 nM [24,25-3H]-labelled cholesterol (American Radiolabelled Chemicals).
The final DMSO concentration was 1%. Cell culture medium was extracted with dextran-coated charcoal suspension and the radiolabelled isocaproic acid was determined by mixing 100 μl of supernatant fraction in 200 μl of scintillation fluid (OptiPhase SuperMix, Perkin Elmer). Radioactivity was measured using a Microbeta scintillation counter (1450 MicroBeta Trilux, Wallac). All the test compounds were studied at 10 concentrations in duplicates.
On to `CCC(=O)N1CCC(COc2ccc(CN3Cc4ccccc4C3)cc2C(C)=O)CC1` [Compound 49, 1-(4-((2-Acetyl-4-(isoindolin-2-ylmethyl)phenoxy)methyl)piperidin-1-yl)propan-1-one], for which the 50% inhibitory concentration (IC50) is 151 to 350 nM.

Regarding `CC(=O)c1cc(CN2Cc3ccccc3C2)ccc1OCc1ccc(C(=O)N(C)C)cc1` [Compound 42, 4-((2-Acetyl-4-(isoindolin-2-ylmethyl)phenoxy)methyl)-N,N-dimethylbenzamide], the half-maximal inhibitory concentration (IC50) was less than 150 nM.

As to `COc1cc(CN2Cc3ccc(S(C)(=O)=O)cc3C2)ccc1OCc1ccc(C(=O)N(C)C)cc1` [Compound 32, 4-((2-Methoxy-4-((5-(methylsulfonyl)isoindolin-2-yl)methyl)phenoxy)methyl)-N,N-dimethylbenzamide], the IC50 lay within 351 to 1500 nM.

With `COCc1cc(CN2Cc3ccccc3C2)ccc1OCC1CCN(S(C)(=O)=O)CC1` [Compound 22, 2-(3-(Methoxymethyl)-4-((1-(methylsulfonyl)piperidin-4-yl)methoxy)benzyl)-isoindoline], the half-maximal inhibitory concentration (IC50) was less than 150 nM.

`CN(C)C(=O)c1ccc(COc2ccc(CN3Cc4ccccc4C3)cc2N)cc1` [Compound 52, 4-((2-Amino-4-(isoindolin-2-ylmethyl)phenoxy)methyl)-N,N-dimethyl-benzamide]: the IC50 lay in the range of 351 to 1500 nM.

Turning to `CN(C)C(=O)c1cc(CN2Cc3ccccc3C2)ccc1OCc1ccc(S(C)(=O)=O)cc1` [Compound 17, 5-(Isoindolin-2-ylmethyl)-N,N-dimethyl-2-((4-(methylsulfonyl)benzyl)oxy)-benzamide], the IC50 lay within 351 to 1500 nM.

As to `COc1cc(CN2Cc3ccccc3C2)ccc1OCc1ccc(C(=O)N(C)CCOC(C)=O)cc1` [Compound 36, 2-(4-((4-(Isoindolin-2-ylmethyl)-2-methoxyphenoxy)methyl)-N-methyl-benzamido)ethyl acetate], the IC50 lay within 151 to 350 nM.

Take `CC(=O)c1cc(CN2Cc3ccccc3C2)ccc1OCC1CCC(S(C)(=O)=O)CC1` (stereo not drawn) [Compound 50, 1-(5-(Isoindolin-2-ylmethyl)-2-((4-(methylsulfonyl)cyclohexyl)methoxy)-phenyl)ethan-1-one]: the half-inhibitory concentration (IC50) lay within 151 to 350 nM.

`CS(=O)(=O)N1CCC(COc2ccc(CN3Cc4ccccc4C3)cc2C#N)CC1` [Compound 19, 5-(Isoindolin-2-ylmethyl)-2-((1-(methylsulfonyl)piperidin-4-yl)methoxy)-benzonitrile]: the IC50 is less than 150 nM.

For `CS(=N)(=O)c1ccc(COc2ccc(CN3Cc4ccccc4C3)c3ocnc23)cc1` (stereo not drawn) [Compound 45, Imino(4-(((7-(isoindolin-2-ylmethyl)benzo[d]oxazol-4-yl)oxy)methyl)phenyl)-(methyl)-λ^6-sulfanone], the 50% inhibitory concentration (IC50) fell in the range of 351 to 1500 nM.

For the compound `CCOc1cc(CN2Cc3ccccc3C2)ccc1OCc1ccc(C(=O)N(C)C)cc1` [Compound 8, 4-((2-Ethoxy-4-(isoindolin-2-ylmethyl)phenoxy)methyl)-N,N-dimethyl-benzamide], the IC50 was in the range of 151 to 350 nM.

As for `CN(C)C(=O)c1ccc(COc2ccc(CN3Cc4ccccc4C3)cc2O)cc1` [Compound 5, 4-((2-Hydroxy-4-(isoindolin-2-ylmethyl)phenoxy)methyl)-N,N-dimethyl-benzamide], the IC50 lay in the range of 151 to 350 nM.

`CS(=O)(=O)N1CCC(COc2ccc(CN3Cc4ccccc4C3)cc2C(F)(F)F)CC1` [Compound 56]: the half-maximal inhibitory concentration (IC50) fell in the range of 151 to 350 nM.

Regarding `COc1cc(CN2Cc3ccccc3C2)ccc1OCc1ccc(S(C)(=O)=O)cc1` [Compound 12, 2-(3-Methoxy-4-((4-(methylsulfonyl)benzyl)oxy)benzyl)isoindoline], the IC50 is less than 150 nM.

As to `CN(C)C(=O)c1ccc(COc2ccc(CN3Cc4ccccc4C3=O)cc2OC(F)(F)F)cc1` [Compound 30, N,N-Dimethyl-4-((4-((1-oxoisoindolin-2-yl)methyl)-2-(trifluoromethoxy)-phenoxy)methyl)benzamide], the half-maximal inhibitory concentration (IC50) was in the range of 351 to 1500 nM.

Turning to `CC(=O)c1cc(CN2Cc3ccccc3C2)ccc1OCC1CCN(S(C)(=O)=O)CC1` [Compound 48, 1-(5-(Isoindolin-2-ylmethyl)-2-((1-(methylsulfonyl)piperidin-4-yl)methoxy)-phenyl)ethan-1-one], the IC50 is less than 150 nM.

For the compound `CS(=N)(=O)c1ccc(COc2ccc(CN3Cc4ccccc4C3)cc2C#N)cc1` (stereo not drawn) [Compound 33, 5-(isoindolin-2-ylmethyl)-2-((4-(S-methylsulfonimidoyl)benzyl)oxy)benzonitrile], the IC50 was less than 150 nM.

Consider `CN(C)C(=O)c1ccc(COc2ccc(CN3Cc4ccccc4C3)cc2OCC(N)=O)cc1` [Compound 14, 4-((2-(2-Amino-2-oxoethoxy)-4-(isoindolin-2-ylmethyl)phenoxy)methyl)-N,N-dimethylbenzamide], for which the IC50 is less than 150 nM.

Turning to `CS(=O)(=O)c1ccc(COc2ccc(CN3Cc4ccccc4C3)cc2C#N)cc1` [Compound 16, 5-(Isoindolin-2-ylmethyl)-2-((4-(methylsulfonyl)benzyl)oxy)benzonitrile], the 50% inhibitory concentration (IC50) was 151 to 350 nM.

Consider `COCc1cc(CN2Cc3ccccc3C2)ccc1OCc1ccc(C(=O)N(C)C)cc1` [Compound 10, 4-((4-(Isoindolin-2-ylmethyl)-2-(methoxymethyl)phenoxy)methyl)-N,N-di-methylbenzamide], for which the IC50 lay within 151 to 350 nM.

`CS(=O)(=O)c1ccc(COc2ccc(CN3Cc4ccccc4C3)cc2C(N)=O)cc1` [Compound 54, 5-(Isoindolin-2-ylmethyl)-2-((4-(methylsulfonyl)benzyl)oxy)benzamide]: the half-maximal inhibitory concentration (IC50) was less than 150 nM.

In the case of `CN(C)C(=O)c1ccc(COc2ccc(CN3Cc4ccccc4C3)cc2Cl)cc1` [Compound 4, 4-((2-Chloro-4-(isoindolin-2-ylmethyl)phenoxy)methyl)-N,N-dimethyl-benzamide], the IC50 lay in the range of 151 to 350 nM.

With `COC(=O)c1ccc(COc2ccc(CN3Cc4ccccc4C3)cc2)cc1` [Compound 2, Methyl 4-((4-(isoindolin-2-ylmethyl)phenoxy)methyl)benzoate], the concentration for half-maximal inhibition (IC50) was in the range of 351 to 1500 nM.

For the compound `CN(C)C(=O)c1ccc(COc2cc(F)c(CN3Cc4ccccc4C3)cc2F)cc1` [Compound 26, 4-((2,5-Difluoro-4-(isoindolin-2-ylmethyl)phenoxy)methyl)-N,N-dimethyl-benzamide], the IC50 was less than 150 nM.

Regarding `CN(C)C(=O)c1ccc(COc2ccc(CN3Cc4ccccc4C3)c(F)c2)cc1` [Compound 24, 4-((3-Fluoro-4-(isoindolin-2-ylmethyl)phenoxy)methyl)-N,N-dimethylbenzamide], the IC50 is 351 to 1500 nM.

`COCc1cc(CN2Cc3ccccc3C2)ccc1OCc1ccc(S(C)(=O)=O)cc1` [Compound 18, 2-(3-(Methoxymethyl)-4-((4-(methylsulfonyl)benzyl)oxy)benzyl)isoindoline]: the IC50 lay within 151 to 350 nM.

Take `COCCN(C)C(=O)c1ccc(COc2ccc(CN3Cc4ccccc4C3)cc2OC)cc1` [Compound 35, 4-((4-(Isoindolin-2-ylmethyl)-2-methoxyphenoxy)methyl)-N-(2-methoxyethyl)-N-methylbenzamide]: the IC50 was less than 150 nM.

For `COc1c(OCC2CCN(C(=O)NC(C)C)CC2)ccc(CN2Cc3ccccc3C2)c1[N+](=O)[O-]` [Compound 23, 4-((4-(Isoindolin-2-ylmethyl)-2-methoxy-3-nitrophenoxy)methyl)-N-isopropyl-piperidine-1-carboxamide], the half-inhibitory concentration (IC50) was 351 to 1500 nM.

As to `CS(=O)(=O)N1CCC(COc2ccc(CN3Cc4ccccc4C3)c3cccnc23)CC1` [Compound 51, 5-(Isoindolin-2-ylmethyl)-8-((1-(methylsulfonyl)piperidin-4-yl)methoxy)-quinoline], the IC50 was less than 150 nM.

With `COC(=O)c1ccc(COc2ccc(CN3Cc4ccccc4C3)cc2[N+](=O)[O-])cc1` [Compound 39, Methyl 4-((4-(isoindolin-2-ylmethyl)-2-nitrophenoxy)methyl)benzoate], the IC50 fell in the range of 351 to 1500 nM.

On to `CCS(=O)(=O)c1ccc(COc2ccc(CN3Cc4ccccc4C3)cc2C(C)=O)cc1` [Compound 43, 1-(2-((4-(Ethylsulfonyl)benzyl)oxy)-5-(isoindolin-2-ylmethyl)phenyl)ethan-1-one], for which the 50% inhibitory concentration (IC50) was less than 150 nM.

In the case of `COc1cc(CN2Cc3ccc(SC)cc3C2)ccc1OCc1ccc(C(=O)N(C)C)cc1` [Compound 34, 4-((2-Methoxy-4-((5-(methylthio)isoindolin-2-yl)methyl)phenoxy)methyl)-N,N-dimethylbenzamide], the IC50 is less than 150 nM.

Regarding `COc1cc(OCc2ccc(C(=O)N(C)C)cc2)ccc1CN1Cc2ccccc2C1` [Compound 31, 4-((4-(Isoindolin-2-ylmethyl)-3-methoxyphenoxy)methyl)-N,N-dimethyl-benzamide], the IC50 was 351 to 1500 nM.

The IC50 is the concentration that gives 50% inhibition.
